Data from US20240002375A1, “2-(INDAZOL-5-YL)-6-(PIPERIDIN-4-YL)-1,7-NAPHTHYRIDINE DERIVATIVES AND RELATED COMPOUNDS AS MODULATORS FOR SPLICING NUCLEIC ACIDS AND FOR THE TRE” (REMIX THERAPEUTICS INC., priority 2020, published 2024).

Tests used:
Type in all cases: cell-based
HTT mRNA = test: Splicing assay (RT-qPCR) of HTT mRNA alternative junction (AJ) and canonical junction (CJ); settings: A673 or K562 cells, 24 hours; for IC50: decrease in CJ mRNA, read-out: HTT CJ IC50; for AC50: increase in AJ mRNA, read-out: HTT AJ AC50
Summary of the method: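 A673 (adherent, 24 h pre-plating) or K562 cells treated 24 h at 37 °C with an 11-point 3-fold dilution series, top 10 uM, DMSO ≤0.25%. Lysates analysed by one-step RT-qPCR for HTT canonical (CJ) and alternative-exon (AJ) junctions, normalised to PPIA (A673) or GAPDH/GUSB (K562).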

HTT CJ mRNA = test: Gene panel canonical junction qPCR splicing assay, HTT; settings: Table 4, read-out: HTT IC50 (decrease in CJ mRNA levels)
Summary of the method: (§1)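 A673 or K562 cells treated with compound; canonical-junction mRNA measured by RT-qPCR with junction-spanning primer/probe sets, normalized to GAPDH, GUSB or PPIA and DMSO (2^−ΔΔCt). IC50 for CJ decrease from 4-parameter logistic fit of percentage response.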

SMN2 CJ mRNA = test: Gene panel canonical junction qPCR splicing assay, SMN2; settings: Table 4, read-out: SMN2 IC50 (decrease in CJ mRNA levels)
Summary of the method: as §1

Target C CJ mRNA = test: Gene panel canonical junction qPCR splicing assay, Target C; settings: Table 4, read-out: Target C IC50 (decrease in CJ mRNA levels)
Summary of the method: as §1

Row | IC50 (HTT mRNA) | IC50 (HTT CJ mRNA) | IC50 (SMN2 CJ mRNA) | IC50 (Target C CJ mRNA) | Structure (SMILES) | AC50 (HTT mRNA)
1 | 1000 to 10000 nM | 1000 to 10000 nM | < 100 nM | 1000 to 10000 nM | Cn1cc2cc(-c3ccc4c(F)c(C5CCNCC5)ccc4n3)c(O)cc2n1 [Compound 115, 5-[5-fluoro-6-(piperidin-4-yl)quinolin-2-yl]-2-methylindazol-6-ol] | 1000 to 10000 nM
2 | 1000 to 10000 nM | 1000 to 10000 nM | < 100 nM | 1000 to 10000 nM | CN1CCN(c2ccc3nc(-c4cc5cn(C)nc5cc4O)ccc3n2)CC1 [Compound 116, 2-methyl-5-[6-(4-methylpiperazin-1-yl)-1,5-naphthyridin-2-yl]indazol-6-ol] | 1000 to 10000 nM
3 | 1000 to 10000 nM | 1000 to 10000 nM | < 100 nM | 1000 to 10000 nM | CC1CN(c2ccc3nc(-c4cc5cn(C)nc5cc4O)ccc3n2)CCN1 (centres unmarked) [Compound 117, 2-methyl-5-[6-(3-methylpiperazin-1-yl)-1,5-naphthyridin-2-yl]indazol-6-ol] | 1000 to 10000 nM
4 | 1000 to 10000 nM | 1000 to 10000 nM | < 100 nM | 1000 to 10000 nM | CC1CN(c2ccc3nc(-c4cc5cn(C)nc5cc4O)ccc3n2)CCN1C (centres unmarked) [Compound 118, 5-[6-(3,4-dimethylpiperazin-1-yl)-1,5-naphthyridin-2-yl]-2-methylindazol-6-ol] | 1000 to 10000 nM
5 | 100 to 1000 nM | 100 to 1000 nM | < 100 nM | 1000 to 10000 nM | CCC1CN(c2ccc3nc(-c4cc5cn(C)nc5cc4O)ccc3n2)CCN1 (centres unmarked) [Compound 119, 5-[6-(3-ethylpiperazin-1-yl)-1,5-naphthyridin-2-yl]-2-methylindazol-6-ol] | 1000 to 10000 nM
6 | 1000 to 10000 nM | 1000 to 10000 nM | < 100 nM | 1000 to 10000 nM | Cn1cc2cc(-c3ccc4nc(N5CCNC(C)(C)C5)ccc4n3)c(O)cc2n1 [Compound 120, 5-[6-(3,3-dimethylpiperazin-1-yl)-1,5-naphthyridin-2-yl]-2-methylindazol-6-ol] | 1000 to 10000 nM
7 | 1000 to 10000 nM | 1000 to 10000 nM | 1000 to 10000 nM | 1000 to 10000 nM | Cn1cc2cc(-c3ccc4nc(N5CCNC6(CC6)C5)ccc4n3)c(O)cc2n1 [Compound 121, 5-(6-[4,7-diazaspiro[2.5]octan-7-yl]-1,5-naphthyridin-2-yl)-2-methylindazol-6-ol] | 1000 to 10000 nM
8 | > 10000 nM | 1000 to 10000 nM | > 10000 nM | > 10000 nM | Cn1cc2cc(-c3ccc4nc(N5CC(C)(C)NC(C)(C)C5)ccc4n3)c(O)cc2n1 [Compound 122, 2-methyl-5-[6-(3,3,5,5-tetramethylpiperazin-1-yl)-1,5-naphthyridin-2-yl]indazol-6-ol] | > 10000 nM
9 | < 100 nM | 100 to 1000 nM | < 100 nM | < 100 nM | CN1CC2(C1)CN(c1ccc3nc(-c4cc5cn(C)nc5cc4O)ccc3n1)C2 [Compound 123, 2-methyl-5-(6-[6-methyl-2,6-diazaspiro[3.3]heptan-2-yl]-1,5-naphthyridin-2-yl) indazol-6-ol] | 100 to 1000 nM
10 | < 100 nM | < 100 nM | < 100 nM | 100 to 1000 nM | Cn1cc2cc(-c3ccc4nc(N5CC6(CNC6)C5)ccc4n3)c(O)cc2n1 [Compound 124, 5-(6-[2,6-diazaspiro[3.3]heptan-2-yl]-1,5-naphthyridin-2-yl)-2-methylindazol-6-ol] | 100 to 1000 nM
11 | 100 to 1000 nM | 100 to 1000 nM | < 100 nM | 100 to 1000 nM | Cn1cc2cc(-c3ccc4nc(N5CCC(N6CCCC6)C5)ccc4n3)c(O)cc2n1 (centres unmarked) [Compound 125, 5-(6-[[1,3 m ? bipyrrolidin]-1 ? yl]-1,5-naphthyridin-2-yl)-2-methylindazol-6-ol] | 100 to 1000 nM
12 | < 100 nM | < 100 nM | < 100 nM | < 100 nM | Cn1cc2cc(-c3ccc4nc(N5CCC(NC(C)(C)C)C5)ccc4n3)c(O)cc2n1 (centres unmarked) [Compound 127, 5-[6-[3-(tert-butylamino)pyrrolidin-1-yl]-1,5-naphthyridin-2-yl]-2-methylindazol-6-ol] | < 100 nM
13 | 100 to 1000 nM | 100 to 1000 nM | < 100 nM | 100 to 1000 nM | CN(C)C1CCN(c2ccc3nc(-c4cc5cn(C)nc5cc4O)ccc3n2)C1 (centres unmarked) [Compound 129, 5-[6-[3-(dimethylamino)pyrrolidin-1-yl]-1,5-naphthyridin-2-yl]-2-methylindazol-6-ol] | 100 to 1000 nM
14 | 1000 to 10000 nM | 1000 to 10000 nM | < 100 nM | > 10000 nM | CCNC1CCN(c2ccc3nc(-c4cc5cn(C)nc5cc4O)ccc3n2)CC1 [Compound 131, 5-[6-[4-(ethylamino)piperidin-1-yl]-1,5-naphthyridin-2-yl]-2-methylindazol-6-ol] | > 10000 nM
15 | > 10000 nM | > 10000 nM | > 10000 nM | > 10000 nM | Cn1cc2cc(-c3ccc4nc(N5CCC(NC(C)(C)C)CC5)ccc4n3)c(O)cc2n1 [Compound 132, 5-[6-[4-(tert-butylamino)piperidin-1-yl]-1,5-naphthyridin-2-yl]-2-methylindazol-6-ol] | > 10000 nM
16 | 1000 to 10000 nM | 1000 to 10000 nM | < 100 nM | 1000 to 10000 nM | CN(C)C1CCN(c2ccc3nc(-c4cc5cn(C)nc5cc4O)ccc3n2)CC1 [Compound 133, 5-[6-[4-(dimethylamino)piperidin-1-yl]-1,5-naphthyridin-2-yl]-2-methylindazol-6-ol] | 1000 to 10000 nM
17 | 1000 to 10000 nM | 1000 to 10000 nM | < 100 nM | 1000 to 10000 nM | Cn1cc2cc(-c3ccc4nc(N5CCN6CCCC6C5)ccc4n3)c(O)cc2n1 (centres unmarked) [Compound 134, 5-(6-[hexahydro-1H-pyrrolo[1,2-a]pyrazin-2-yl]-1,5-naphthyridin-2-yl)-2-methylindazol-6-ol] | 1000 to 10000 nM
18 | 1000 to 10000 nM | 1000 to 10000 nM | < 100 nM | 100 to 1000 nM | Cn1cc2cc(-c3ccc4nc(N5CCNCC5)ccc4n3)c(O)cc2n1 [Compound 136] | 1000 to 10000 nM
19 | 100 to 1000 nM | 100 to 1000 nM | < 100 nM | 1000 to 10000 nM | C[C@@H]1CC(c2ccc3nc(-c4cc5cn(C)nc5cc4O)ccc3n2)C[C@H](C)N1 (stereo partly drawn) [Compound 137, 5-[6-[(2R,6S)-2,6-dimethylpiperidin-4-yl]-1,5-naphthyridin-2-yl]-2-methylindazol-6-ol] | 100 to 1000 nM
20 | 100 to 1000 nM | 100 to 1000 nM | < 100 nM | 1000 to 10000 nM | CCN1CCC(c2ccc3nc(-c4cc5cn(C)nc5cc4O)ccc3n2)CC1 [Compound 138, 5-[6-(1-ethylpiperidin-4-yl)-1,5-naphthyridin-2-yl]-2-methylindazol-6-ol] | 100 to 1000 nM
21 | 1000 to 10000 nM | 1000 to 10000 nM | 100 to 1000 nM | > 10000 nM | Cn1cc2c(O)c(-c3cc4ccc(C5CCNCC5)nc4cn3)cc(Br)c2n1 [Compound 141] | 1000 to 10000 nM
22 | 100 to 1000 nM | 100 to 1000 nM | < 100 nM | 100 to 1000 nM | CN1CCC(c2ccc3nc(-c4cc5cn(C)nc5cc4O)ccc3n2)CC1 [Compound 142, 2-methyl-5-[6-(1-methylpiperidin-4-yl)-1,5-naphthyridin-2-yl]indazol-6-ol] | 100 to 1000 nM
23 | > 10000 nM | > 10000 nM | > 10000 nM | > 10000 nM | COc1cc2nn(C)cc2cc1-c1ccc2c(F)c(C3CCNCC3)ccc2n1 [Compound 143, 5-fluoro-2-(6-methoxy-2-methylindazol-5-yl)-6-(piperidin-4-yl)quinoline] | > 10000 nM
24 | > 10000 nM | > 10000 nM | > 10000 nM | > 10000 nM | Cn1cc2cc(-c3ccc4cc(C5CCNCC5)c(F)cc4n3)c(O)cc2n1 [Compound 144, 5-[7-fluoro-6-(piperidin-4-yl)quinolin-2-yl]-2-methylindazol-6-01] | > 10000 nM
25 | > 10000 nM | > 10000 nM | > 10000 nM | > 10000 nM | COc1cc2nn(C)cc2cc1-c1ccc2cc(C3CCNCC3)c(F)cc2n1 [Compound 145, 7-fluoro-2-(6-methoxy-2-methylindazol-5-yl)-6-(piperidin-4-yl)quinoline] | > 10000 nM

Row | Structure (SMILES) | IC50 (HTT mRNA) | IC50 (HTT CJ mRNA) | IC50 (SMN2 CJ mRNA) | IC50 (Target C CJ mRNA) | AC50 (HTT mRNA)
26 | CN1CCC(N(C)c2ccc3nc(-c4cc5cn(C)nc5cc4O)ccc3n2)CC1 [Compound 126] | 100 to 1000 nM | 100 to 1000 nM | < 100 nM | < 100 nM | 100 to 1000 nM
27 | CN(c1ccc2nc(-c3cc4cn(C)nc4cc3O)ccc2n1)C1CC(C)(C)NC(C)(C)C1 [Compound 130] | > 10000 nM | > 10000 nM | 100 to 1000 nM | > 10000 nM | > 10000 nM
28 | Cn1cc2cc(-c3ccc4nc(N5C[C@H]6CC[C@@H](C5)N6)ccc4n3)c(O)cc2n1 [Compound 135, 5-[6 [(1R,5 S)-3,8-diazabicyclo[3.2.1]octan-3-yl]-1,5-naphthyridin-2-yl]-2-methylindazol-6-01] | 1000 to 10000 nM | 1000 to 10000 nM | < 100 nM | 1000 to 10000 nM | 1000 to 10000 nM
